Drawing on ChEMBL document CHEMBL1135359, “Antifungal sordarins. Synthesis and structure-activity relationships of 3',4'-fused dioxolane and dioxane derivatives” (2002), this text covers MIC for twelve compounds.

The structures appear in SMILES notation. Converted amounts (≈) assume the structure as drawn.

Holding throughout (type): functional
Assay [1] has as its system Candida albicans. In words: In vitro antifungal activity for Candida albicans 4711E.
The subject of assay [2] is Candida albicans. In words: In vitro antifungal activity for Candida albicans 2402E.
In assay [3] the test system is Cryptococcus neoformans. Put plainly: In vitro antifungal activity for Cryptococcus neoformans 2867E.
The test system of assay [4] is Kluyveromyces marxianus. In words: In vitro antifungal activity for Candida pseudotropicalis 2371E.
The subject of assay [5] is Nakaseomyces glabratus. In words: In vitro antifungal activity for Candida glabrata 2375E.
For assay [6], the system named is Candida tropicalis. In words: In vitro antifungal activity for Candida tropicalis 2808E.
Assay [7] has as its system Candida albicans. Put plainly: In vitro antifungal activity for Candida albicans 2005E.

As for `CC(C)C1=CC2CC3(C=O)[C@@H]4CC[C@@H](C)[C@H]4CC2(CO[C@H]2C[C@@H]4OCO[C@@H]4[C@@H](C)O2)C13C(=O)O` (stereo partly specified), the MIC turned out to be 0.03 µg/mL (≈ 0.0632 µM) in assay [1]; 0.015 µg/mL (≈ 0.0316 µM) in assay [2]; 0.5 µg/mL (≈ 1.05 µM) in assay [3]; 0.03 µg/mL (≈ 0.0632 µM) in assay [4]; 16 µg/mL (≈ 33.7 µM) in assay [5]; 0.25 µg/mL (≈ 0.527 µM) in assay [6]. The MIC in assay [7] was 0.015 µg/mL (≈ 0.0316 µM).

Turning to `C/C=C/C=C(\C)C(=O)O[C@H]1[C@H](O)[C@H](OCC23C[C@@H]4[C@H](C)CC[C@H]4C4(C=O)CC2C=C(C(C)C)C34C(=O)O)O[C@H](C)[C@H]1OC` (stereo partly specified), the MIC is 0.25 µg/mL (≈ 0.416 µM) in assay [1]; 0.03 µg/mL (≈ 0.0499 µM) in assay [2]; 0.25 µg/mL (≈ 0.416 µM) in assay [3]; 0.03 µg/mL (≈ 0.0499 µM) in assay [4]; over 125 µg/mL in assay [5]; 0.06 µg/mL (≈ 0.0999 µM) in assay [6]. The same compound gave an MIC in assay [7] of 0.015 µg/mL (≈ 0.025 µM).

Regarding `CC(C)C1=CC2CC3(C=O)[C@@H]4CC[C@@H](C)[C@H]4CC2(CO[C@H]2C[C@@H]4OC(=O)O[C@@H]4[C@@H](C)O2)C13C(=O)O` (stereo partly specified), the MIC came out at 2 µg/mL (≈ 4.09 µM) in assay [1]; 4 µg/mL (≈ 8.19 µM) in assay [2]; 16 µg/mL (≈ 32.7 µM) in assay [3]; 1 µg/mL (≈ 2.05 µM) in assay [4]; 8 µg/mL (≈ 16.4 µM) in assay [5]; 2 µg/mL (≈ 4.09 µM) in assay [6]. Moreover, the MIC in assay [7] is 1 µg/mL (≈ 2.05 µM).

`CC1O[C@H]2[C@H](C[C@H](OCC34C[C@@H]5[C@H](C)CC[C@H]5C5(C=O)CC3C=C(C(C)C)C45C(=O)O)O[C@@H]2C)O1` (stereo partly specified): the minimal inhibitory concentration (MIC) is under 0.001 µg/mL in assay [1]; 31 µg/mL (≈ 63.4 µM) in assay [3]; 0.004 µg/mL (≈ 0.00819 µM) in assay [4]; 8 µg/mL (≈ 16.4 µM) in assay [5]; 0.03 µg/mL (≈ 0.0614 µM) in assay [6]; under 0.001 µg/mL in assay [7].

As for `CC(C)C1=CC2CC3(C=O)[C@@H]4CC[C@@H](C)[C@H]4CC2(CO[C@H]2C[C@@H]4OC(C)(C)O[C@@H]4[C@@H](C)O2)C13C(=O)O` (stereo partly specified), the MIC in assay [1] came to 0.004 µg/mL (≈ 0.00796 µM); in assay [2] it was 0.008 µg/mL (≈ 0.0159 µM); in assay [3], 8 µg/mL (≈ 15.9 µM); in assay [4], 0.004 µg/mL (≈ 0.00796 µM); in assay [5], 31 µg/mL (≈ 61.7 µM); in assay [6], 0.12 µg/mL (≈ 0.239 µM). In assay [7], this compound gave an MIC of under 0.001 µg/mL.

As for `CC(C)C1=CC2CC3(C=O)[C@@H]4CC[C@@H](C)[C@H]4CC2(CO[C@@H]2C[C@@H]4OC(C)(C)O[C@@H]4[C@@H](C)O2)C13C(=O)O` (stereo partly specified), the MIC in assay [1] was 4 µg/mL (≈ 7.96 µM); in assay [3], over 125 µg/mL; in assay [4], 4 µg/mL (≈ 7.96 µM); in assay [5], over 125 µg/mL; in assay [6], 16 µg/mL (≈ 31.8 µM); in assay [7], 2 µg/mL (≈ 3.98 µM).

For `CC(C)C1=CC2CC3(C=O)[C@@H]4CC[C@@H](C)[C@H]4CC2(CO[C@H]2C[C@@H]4OC(C)(C)CO[C@@H]4[C@@H](C)O2)C13C(=O)O` (stereo partly specified), the MIC is 0.25 µg/mL (≈ 0.484 µM) in assay [1]; 0.12 µg/mL (≈ 0.232 µM) in assay [2]; 31 µg/mL (≈ 60 µM) in assay [3]; 0.03 µg/mL (≈ 0.0581 µM) in assay [4]; over 125 µg/mL in assay [5]; 1 µg/mL (≈ 1.94 µM) in assay [6]. The same compound displayed an MIC in assay [7] of 0.015 µg/mL (≈ 0.029 µM).

For the compound `CC(C)C1=CC2CC3(C=O)[C@@H]4CC[C@@H](C)[C@H]4CC2(CO[C@H]2C[C@@H]4OC(=S)O[C@@H]4[C@@H](C)O2)C13C(=O)O` (stereo partly specified), the MIC was found to be 2 µg/mL (≈ 3.96 µM) in assay [1]; 8 µg/mL (≈ 15.9 µM) in assay [2]; 8 µg/mL (≈ 15.9 µM) in assay [3]; 1 µg/mL (≈ 1.98 µM) in assay [4]; 16 µg/mL (≈ 31.7 µM) in assay [5]; 125 µg/mL (≈ 248 µM) in assay [6]. In assay [7], this compound gave an MIC of 2 µg/mL (≈ 3.96 µM).

For `CC(C)C1=CC2CC3(C=O)[C@@H]4CC[C@@H](C)[C@H]4CC2(CO[C@@H]2O[C@H](C)[C@H]4OC(C)(C)OC4[C@H]2O)C13C(=O)O` (single isomer, unassigned), the MIC was 8 µg/mL (≈ 15.4 µM) in assay [1]; 8 µg/mL (≈ 15.4 µM) in assay [2]; over 125 µg/mL in assay [3]; 2 µg/mL (≈ 3.86 µM) in assay [4]; over 125 µg/mL in assay [5]; 31 µg/mL (≈ 59.8 µM) in assay [6]. The lowest concentration to inhibit growth in assay [7] (MIC) was 2 µg/mL (≈ 3.86 µM).

On to `CC(C)C1=CC2CC3(C=O)[C@@H]4CC[C@@H](C)[C@H]4CC2(CO[C@@H]2O[C@H](C)[C@H]4OC(=S)OC4[C@@H]2O)C13C(=O)O` (single isomer, unassigned), for which the MIC in assay [1] was 62 µg/mL (≈ 119 µM); in assay [2], 62 µg/mL (≈ 119 µM); in assay [3], 16 µg/mL (≈ 30.7 µM); in assay [4] it was 31 µg/mL (≈ 59.5 µM); in assay [5] it was 125 µg/mL (≈ 240 µM); in assay [6], over 125 µg/mL. Besides, in assay [7], the MIC amounted to 31 µg/mL (≈ 59.5 µM).

For the compound `CC(C)C1=CC2CC3(C=O)[C@@H]4CC[C@@H](C)[C@H]4CC2(CO[C@@H]2O[C@H](C)[C@H]4OC(C)(C)OC4[C@@H]2O)C13C(=O)O` (single isomer, unassigned), the minimal inhibitory concentration (MIC) is 0.12 µg/mL (≈ 0.231 µM) in assay [1]; 0.5 µg/mL (≈ 0.964 µM) in assay [2]; 125 µg/mL (≈ 241 µM) in assay [3]; 0.06 µg/mL (≈ 0.116 µM) in assay [4]; 31 µg/mL (≈ 59.8 µM) in assay [5]; 1 µg/mL (≈ 1.93 µM) in assay [6]. For the same compound, the lowest concentration to inhibit growth in assay [7] (MIC) was 0.12 µg/mL (≈ 0.231 µM).

In the case of `CC1OC2[C@H](O)[C@H](OCC34C[C@@H]5[C@H](C)CC[C@H]5C5(C=O)CC3C=C(C(C)C)C45C(=O)O)O[C@H](C)[C@H]2O1` (single isomer, unassigned), the MIC in assay [1] was 0.5 µg/mL (≈ 0.991 µM); in assay [3] it was 16 µg/mL (≈ 31.7 µM); in assay [4] it was 0.5 µg/mL (≈ 0.991 µM); in assay [5], 62 µg/mL (≈ 123 µM); in assay [6] it was 1 µg/mL (≈ 1.98 µM); in assay [7] it was 0.03 µg/mL (≈ 0.0595 µM).
